Measured values published in US7687494B2, “Substituted spirobenzazepines” (Janssen Pharmaceutica NV, priority 2003, dated 2010).

Legend:
[1] = target: T1, human V2 receptor (Homo sapiens, UniProt P30518); assay: In-vitro binding assay, 3H-arginine-8-vasopressin, V2 membranes; conditions: V2 (second value of V1a/V2)
Method: (§1) Assay buffer is 50 mM Tris-Cl, 5 mM MgCl2, 0.1% BSA (pH 7.5) containing 5 μg/ml of aprotinin, leupeptin, pepstatin, 50 μg/ml bacitracin, and 1 mM Pefabloc (4-(2-Aminoethyl)-benzenesulfonyl fluoride, hydrochloride manufactured by Roche Diagnostics Corporation, Indianapolis, Ind. and distributed by Boehringer Mannheim). H3 vasopressin is ^3H-arginine-8-vasopressin (NEN Life Sciences, Boston, Mass.; 68.5 Ci/mmol, final concentration in assay is 0.65-0.75 nM). Into wells of 96-well round bottom polypropylene plates are added buffer, test compound, membrane (containing human V1a or V2 receptor), and H3 vasopressin. The reaction plates are allowed to sit at room temperature for one hour. The samples are filtered through Unifilter GF/C plates (PerkinElmer Life Sciences, Boston, Mass.) presoaked in 0.3 polyethyleneimine. The plates are washed 5 times with cold physiological saline containing 0.05% Tween 20. After drying, the bottom of the filter plates are sealed and 0.025 ml of Microscint-20 (Packard Instrument Co, Meriden, Conn.) is added to each filter. The top of the plate is sealed, and the plate is counted. Non-specific binding is determined by the addition of 1.25 μM arginine-8-vasopressin in those wells. % Inh. is calculated
(§2) [formula] as follows: (B) V1a Vasopressin Receptor Functional Activity

[2] = target: T2, human V1a receptor (Homo sapiens, UniProt P37288); assay: V1a vasopressin receptor functional activity (intracellular calcium mobilization, FLIPR, V1a-HEK cells); type: cell-based; conditions: V1a (first value of V1a/V2); vasopressin-challenged transfected HEK-293 cells
Method: The V1a receptor is a G-protein coupled receptor, which upon activation triggers an increase in intracellular calcium mobilization. To evaluate compounds for their functional V1a receptor activity, HEK-293 cells were transfected with the human V1a receptor (V1a-HEK cells). HEK-293 cells were grown in DMEM (Dulbecco's modified Eagle Media) supplemented with 10% FBS and glutamine. HEK-cells were passed biweekly by trypsinization and seeded into 96 well plates at 33,000 cells per well. HEK-293 cells were transfected with human V1a receptor DNA using DMRIE-C reagent from Life Technologies (Carlsbad, Calif.). Stable lines were generated by selecting cells grown in culture media containing geneticin. After growing in Packard Clear-View black 96 well plates for 4-6 days, V1a-HEK cells were loaded with the calcium-sensitive fluorescence dye, FLUO-3 AM. Changes in intracellular calcium mobilization were measured by quantitating intracellular fluorescence using FLIPR (Fluorometric Imaging Plate Reader; Molecular Devices, Sunnyvale, Calif.). Test compounds were first added to the cells and the resulting changes in fluorescence measured to detect receptor agonistic activity. Five minutes later the cells were challenged with vasopressin to test compounds for their antagonistic activity. Receptor antagonists inhibit the ability of vasopressin to stimulate increases in intracellular fluorescence. IC50's were calculated.

[3] = target: T2, human V1a receptor; assay: In-vitro binding assay, 3H-arginine-8-vasopressin, V1a membranes; conditions: V1a (first value of V1a/V2)
Method: as §1, §2

[4] = target: T1, human V2 receptor; assay: V2 vasopressin receptor functional activity (cAMP accumulation, V2-HEK cells); type: cell-based; design: expressed in transfected cells; host or cells: HEK-293; conditions: V2 (second value of V1a/V2); vasopressin-stimulated cAMP in transfected HEK-293 cells
Method: The V2 receptor is also a G-protein coupled receptor which when activated induces an increase in cAMP turnover. Antagonism against the V2 receptor is determined by measuring cAMP accumulation in transfected HEK-293 cells expressing the human V-2 receptor (V2-HEK cells). Compounds are tested for their ability to block the stimulatory effects of vasopressin on cAMP accumulation. The cell content of cAMP is measured by radioimmunoassay using NEN flashplates.

T1 sequence (P30518 whole entry): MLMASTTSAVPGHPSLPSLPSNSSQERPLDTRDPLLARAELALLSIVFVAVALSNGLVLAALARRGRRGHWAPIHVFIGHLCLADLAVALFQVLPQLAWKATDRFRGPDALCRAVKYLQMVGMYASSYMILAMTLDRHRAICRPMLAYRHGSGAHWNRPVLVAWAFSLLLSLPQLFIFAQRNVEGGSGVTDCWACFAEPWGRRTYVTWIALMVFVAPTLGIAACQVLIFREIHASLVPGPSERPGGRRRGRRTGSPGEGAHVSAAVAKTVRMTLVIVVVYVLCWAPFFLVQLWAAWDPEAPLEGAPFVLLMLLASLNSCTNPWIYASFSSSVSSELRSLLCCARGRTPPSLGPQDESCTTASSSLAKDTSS
T2 sequence (P37288 whole entry): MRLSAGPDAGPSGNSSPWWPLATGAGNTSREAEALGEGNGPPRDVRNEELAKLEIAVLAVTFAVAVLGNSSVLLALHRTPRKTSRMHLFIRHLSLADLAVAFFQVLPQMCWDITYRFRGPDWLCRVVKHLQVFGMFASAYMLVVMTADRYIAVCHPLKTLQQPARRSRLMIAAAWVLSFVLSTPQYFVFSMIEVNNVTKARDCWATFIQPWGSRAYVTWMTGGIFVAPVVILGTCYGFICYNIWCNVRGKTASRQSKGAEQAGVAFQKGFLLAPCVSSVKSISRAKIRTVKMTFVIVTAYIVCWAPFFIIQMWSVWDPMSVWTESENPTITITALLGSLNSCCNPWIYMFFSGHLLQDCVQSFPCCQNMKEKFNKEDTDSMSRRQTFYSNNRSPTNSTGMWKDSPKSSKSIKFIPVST

## CN(C)CCNC(=O)C1=CC2(CC1)CCN(C(=O)c1ccc(NC(=O)c3ccccc3-c3ccccc3)cc1)c1ccccc1C2 (racemic) [A, 4-(2-phenylbenzoyl-4-aminobenzoyl)-3′-[2-(N,N-dimethylaminoethylcarbony)]-4-aza-[6,4]-spiro-[5,6]-benzoundec-2′-ene, reference compound]
[1]
  IC50: 11 nM
[2]
  IC50: 4 nM
[3]
  IC50: 5 nM

## COc1cc(C(=O)N2CC[C@]3(C=C(C(=O)O)CC3)Cc3ccccc32)ccc1NC(=O)c1cc(F)ccc1Cl [Compound 29, (R)-4-(2-Chloro-5-fluorobenzoyl-3-methoxy-4-aminobenzoyl)-4-aza-3′-(carboxy)-[6,4]-spiro-[5,6]-benzoundec-2′-ene]
[4]
  IC50: 52 nM
[1]
  IC50: 30 nM
[2]
  IC50: 38 nM
[3]
  IC50: 5 nM

## CCOc1cc(C(=O)N2CC[C@]3(C=C(C(=O)O)CC3)Cc3ccccc32)ccc1NC(=O)c1cc(F)ccc1Cl [Compound 31, (R)-4-(2-Chloro-5-fluorobenzoyl-3-ethoxy-4-aminobenzoyl)-4-aza-3′-carboxy-[6,4]-spiro-[5,6]-benzoundec-2′-ene]
[4]
  IC50: 150 nM
[1]
  IC50: 71 nM
[2]
  IC50: 50 nM
[3]
  IC50: 8 nM

## O=C(O)C1=C[C@@]2(CC1)CCN(C(=O)c1ccc(NC(=O)c3cc(F)ccc3Cl)cc1)c1ccccc1C2 [reference compound]
[4]
  IC50: 100 nM
[1]
  IC50: 53 nM
[2]
  IC50: 380 nM
[3]
  IC50: 13 nM
